Measurements: the NIST ThermoML archive (doi:10.1021/acs.jced.8b00554)

Assay: xn = mol fraction of the nth substance listed
Conditions: Liquid, Vibrating tube method

CCCCCCCC [octane] + CCCO
mass density [kg/m3]
Conditions	313.15 K	323.15 K
100 kPa, x2 = 0.1631	693.18	684.56
100 kPa, x2 = 0.2111	695.76	687.03
100 kPa, x2 = 0.3158	701.99	693.22
100 kPa, x2 = 0.4411	711	702.44
100 kPa, x2 = 0.7301	740.14	731.25
100 kPa, x2 = 0.8823	763.46	754.72
1000 kPa, x2 = 0.1631	694.31	–
1000 kPa, x2 = 0.4411	712.19	–
1000 kPa, x2 = 0.8823	–	755.36
1010 kPa, x2 = 0.2111	696.95	–
1010 kPa, x2 = 0.3158	703.21	694.15
1010 kPa, x2 = 0.4411	–	703
1010 kPa, x2 = 0.7301	741.33	732.1
1010 kPa, x2 = 0.8823	764.37	–
1020 kPa, x2 = 0.1631	–	685.52
1020 kPa, x2 = 0.2111	–	688.02
2000 kPa, x2 = 0.4411	–	703.99
2000 kPa, x2 = 0.7301	742.25	–
2010 kPa, x2 = 0.1631	695.26	686.54
2010 kPa, x2 = 0.2111	697.87	689.01
2010 kPa, x2 = 0.3158	704.14	695.16
2010 kPa, x2 = 0.4411	713.12	–
2010 kPa, x2 = 0.7301	–	733.06
2010 kPa, x2 = 0.8823	765.24	–
2020 kPa, x2 = 0.8823	–	756.3
3000 kPa, x2 = 0.2111	698.81	–
3000 kPa, x2 = 0.4411	714.05	704.97
3000 kPa, x2 = 0.7301	743.18	–
3010 kPa, x2 = 0.3158	705.04	696.14
3010 kPa, x2 = 0.7301	–	734.04
3010 kPa, x2 = 0.8823	–	757.26
3020 kPa, x2 = 0.1631	696.19	687.52
3020 kPa, x2 = 0.2111	–	690
3020 kPa, x2 = 0.8823	766.13	–
4000 kPa, x2 = 0.2111	699.72	–
4000 kPa, x2 = 0.4411	714.95	–
4010 kPa, x2 = 0.3158	705.98	–
4010 kPa, x2 = 0.7301	744.05	734.99
4010 kPa, x2 = 0.8823	–	758.2
4020 kPa, x2 = 0.1631	697.09	688.52
4020 kPa, x2 = 0.2111	–	691
4020 kPa, x2 = 0.3158	–	697.11
4020 kPa, x2 = 0.4411	–	705.97
4020 kPa, x2 = 0.8823	767	–
5000 kPa, x2 = 0.1631	698.01	–
5000 kPa, x2 = 0.3158	706.86	–
5000 kPa, x2 = 0.8823	767.9	–
5010 kPa, x2 = 0.1631	–	689.5
5010 kPa, x2 = 0.2111	700.64	–
5010 kPa, x2 = 0.7301	744.95	735.97
5020 kPa, x2 = 0.2111	–	691.96
5020 kPa, x2 = 0.3158	–	698.1
5020 kPa, x2 = 0.4411	715.86	706.95
5020 kPa, x2 = 0.8823	–	759.13
6000 kPa, x2 = 0.7301	–	736.92
6010 kPa, x2 = 0.1631	–	690.43
6010 kPa, x2 = 0.2111	701.53	692.93
6010 kPa, x2 = 0.4411	716.76	707.91
6010 kPa, x2 = 0.7301	745.83	–
6010 kPa, x2 = 0.8823	768.74	760.04
6020 kPa, x2 = 0.1631	698.89	–
6020 kPa, x2 = 0.3158	707.76	699.06
7000 kPa, x2 = 0.1631	–	691.4
7000 kPa, x2 = 0.3158	708.66	–
7010 kPa, x2 = 0.2111	–	693.87
7010 kPa, x2 = 0.4411	–	708.85
7010 kPa, x2 = 0.7301	746.74	737.85
7020 kPa, x2 = 0.1631	699.79	–
7020 kPa, x2 = 0.2111	702.4	–
7020 kPa, x2 = 0.3158	–	700.03
7020 kPa, x2 = 0.4411	717.65	–
7020 kPa, x2 = 0.8823	769.63	760.95
8000 kPa, x2 = 0.1631	700.66	692.37
8010 kPa, x2 = 0.3158	709.55	700.95
8010 kPa, x2 = 0.4411	718.55	709.8
8010 kPa, x2 = 0.7301	747.6	738.79
8010 kPa, x2 = 0.8823	770.46	761.85
8020 kPa, x2 = 0.2111	703.3	694.84
9000 kPa, x2 = 0.3158	710.41	–
9000 kPa, x2 = 0.4411	719.39	–
9000 kPa, x2 = 0.7301	748.46	739.71
9010 kPa, x2 = 0.1631	701.54	–
9010 kPa, x2 = 0.4411	–	710.74
9010 kPa, x2 = 0.8823	–	762.75
9020 kPa, x2 = 0.1631	–	693.29
9020 kPa, x2 = 0.2111	704.17	695.78
9020 kPa, x2 = 0.3158	–	701.92
9020 kPa, x2 = 0.8823	771.29	–
10000 kPa, x2 = 0.1631	–	694.22
10000 kPa, x2 = 0.2111	705.02	–
10000 kPa, x2 = 0.7301	–	740.61
10010 kPa, x2 = 0.1631	702.41	–
10010 kPa, x2 = 0.2111	–	696.69
10010 kPa, x2 = 0.4411	720.29	–
10010 kPa, x2 = 0.7301	749.32	–
10020 kPa, x2 = 0.3158	711.31	–
10020 kPa, x2 = 0.8823	772.16	–
11000 kPa, x2 = 0.1631	703.29	–
11000 kPa, x2 = 0.8823	772.97	–
11010 kPa, x2 = 0.3158	712.17	–
11010 kPa, x2 = 0.7301	750.16	–
11020 kPa, x2 = 0.2111	705.91	–
11020 kPa, x2 = 0.4411	721.14	–
12010 kPa, x2 = 0.1631	704.11	–
12010 kPa, x2 = 0.2111	706.77	–
12010 kPa, x2 = 0.3158	712.99	–
12010 kPa, x2 = 0.7301	751	–
12020 kPa, x2 = 0.4411	722	–
12020 kPa, x2 = 0.8823	773.81	–
13000 kPa, x2 = 0.4411	722.85	–
13000 kPa, x2 = 0.8823	774.61	–
13010 kPa, x2 = 0.1631	704.97	–
13010 kPa, x2 = 0.3158	713.85	–
13010 kPa, x2 = 0.7301	751.83	–
13020 kPa, x2 = 0.2111	707.6	–
14010 kPa, x2 = 0.3158	714.67	–
14020 kPa, x2 = 0.1631	705.8	–
14020 kPa, x2 = 0.2111	708.41	–
14020 kPa, x2 = 0.4411	723.68	–
14020 kPa, x2 = 0.7301	752.64	–
14020 kPa, x2 = 0.8823	775.41	–
15000 kPa, x2 = 0.4411	724.48	–
15010 kPa, x2 = 0.2111	709.26	–
15010 kPa, x2 = 0.3158	715.49	–
15010 kPa, x2 = 0.7301	753.46	–
15010 kPa, x2 = 0.8823	776.2	–
15020 kPa, x2 = 0.1631	706.63	–
16000 kPa, x2 = 0.1631	707.41	–
16010 kPa, x2 = 0.4411	725.31	–
16010 kPa, x2 = 0.7301	754.27	–
16010 kPa, x2 = 0.8823	776.98	–
16020 kPa, x2 = 0.2111	710.08	–
16020 kPa, x2 = 0.3158	716.32	–
17000 kPa, x2 = 0.8823	777.78	–
17020 kPa, x2 = 0.1631	708.23	–
17020 kPa, x2 = 0.2111	710.85	–
17020 kPa, x2 = 0.3158	717.13	–
17020 kPa, x2 = 0.4411	726.11	–
17020 kPa, x2 = 0.7301	755.05	–
18000 kPa, x2 = 0.1631	709.02	–
18000 kPa, x2 = 0.4411	726.91	–
18010 kPa, x2 = 0.2111	711.64	–
18010 kPa, x2 = 0.3158	717.91	–
18010 kPa, x2 = 0.8823	778.53	–
18020 kPa, x2 = 0.7301	755.85	–
19000 kPa, x2 = 0.3158	718.69	–
19000 kPa, x2 = 0.7301	756.62	–
19010 kPa, x2 = 0.2111	712.43	–
19010 kPa, x2 = 0.4411	727.68	–
19010 kPa, x2 = 0.8823	779.29	–
19020 kPa, x2 = 0.1631	709.81	–
20000 kPa, x2 = 0.2111	713.22	–
20000 kPa, x2 = 0.4411	728.45	–
20010 kPa, x2 = 0.1631	710.59	–
20010 kPa, x2 = 0.3158	719.47	–
20010 kPa, x2 = 0.7301	757.39	–
20020 kPa, x2 = 0.8823	780.06	–
